The source of these data is patent US9617256B2 (priority 2007, dated 2017).

Assay [1] deals with AECO063 (ATCC25922 bearing an acrAB mutation). Put plainly: microbe, parasite or virus in culture. The assay is classed as cell-based, E. coli. The following applies: Escherichia coli, ATCC25922, read-out: MIC AECO063. As to the method: (§1) Bacterial isolates were cultivated from −70° C. frozen stocks by overnight passages at 35° C. in ambient air on Mueller-Hinton agar (Beckton Dickinson, Franklin Lakes, N.J.). Clinical isolates tested were obtained from various geographically diverse hospitals in the US and abroad (Focus Diagnostics, Herndon, Va. and JMI, North Liberty, Iowa). Quality control strains were from the American Type Culture Collection (ATCC; Rockville, Md.). Additional primary panel strains were generated using standard molecular biology techniques.
(§2) Minimum Inhibitory Concentrations (MICs) were determined by the broth microdilution method in accordance with the Clinical and Laboratory Standards Institute (CLSI) guidelines. In brief, organism suspensions were adjusted to a 0.5 McFarland standard to yield a final inoculum between 3×10^5 and 7×10^5 colony-forming units (CFU)/mL. Drug dilutions and inocula were made in sterile, cation adjusted Mueller-Hinton Broth (Beckton Dickinson). An inoculum volume of 100 μL was added to wells containing 100 μL of broth with 2-fold serial dilutions of drug. All inoculated microdilution trays were incubated in ambient air at 35° C. for 18-24 hours. […] Performance of the assay was monitored by the use of laboratory quality-control strains and levofloxacin, a compound with a defined MIC spectrum, in accordance with CLSI guidelines.
(§3) *AECO001 is ATCC25922, AECO063 is ATCC25922 bearing an acrAB mutation, APAE001 is ATCC27853, APAE006 is a strain of P. aeruginosa in which all efflux pumps are inactivated, APAE006+PMBN indicates MICs with the indicated strain in the presence of 8 micrograms per milliliter of polymyxin B nonapeptide, AABA1060 is a clinical isolate of Acinetobacter baumannii, ASAU001 is a laboratory strain of S. aureus (ATCC29213).

The test system of assay [2] is APAE006 (strain of P. aeruginosa in which all efflux pumps are inactivated). Put plainly: microbe, parasite or virus in culture. The conditions noted are these: Pseudomonas aeruginosa, read-out: MIC APAE006, APAE006, all efflux pumps inactivated. The assay is classed as cell-based. As to the method:
as §1, §2, §3

Assay [3] relates to AABA1060 (clinical isolate of Acinetobacter baumannii). Put plainly: MIC broth microdilution, AABA1060. The assay is classed as cell-based. The following applies: Acinetobacter baumannii, read-out: MIC AABA1060. The procedure: as §1, §2, §3
(Broth dilution looks for growth in wells or tubes with falling amounts of substance.)

The test system of another assay is APAE001 (ATCC27853). In words: MIC broth microdilution, APAE001. Format: cell-based, P. aeruginosa. The following applies: Pseudomonas aeruginosa, ATCC27853, read-out: MIC APAE001, APAE001 (ATCC27853). The procedure:
as §1, §2, §3

The subject of assay [4] is APAE006 in the presence of 8 micrograms per milliliter of polymyxin B nonapeptide. Format: cell-based, P. aeruginosa. The following applies: APAE006 with 8 micrograms per milliliter polymyxin B nonapeptide. The procedure: as §1, §2, §3
Assay [5] relates to ASAU001 (laboratory strain of S. aureus, ATCC29213). In words: MIC broth microdilution, ASAU001. The conditions noted are these: Staphylococcus aureus, ATCC29213, read-out: MIC ASAU001. The assay is classed as cell-based. As to the method:
as §1, §2, §3

The test system of the next assay is AECO001 (ATCC25922). Put plainly: MIC broth microdilution, AECO001. Format: cell-based, E. coli. The conditions noted are these: for MIC: Escherichia coli. The procedure:
as §1, §2, §3

The mark [6] stands for this setting: ATCC25922, read-out: MIC AECO001.
Where [7] appears, read: ATCC25922, read-out: MIC AECO001 HSA AGP.

In brackets after ≈: the same amount, converted by molar mass. Read-outs that look alike come from different tables or passages of the source.

`CC(C)(N)C(NC(=O)c1ccc(C#CC#Cc2ccc(CNC3CC3)cc2)cc1)C(=O)NO` (centres unmarked) [Example 87-1, N-(2-Amino-1-hydroxycarbamoyl-2-methyl-propyl)-4-[4-(4-cyclopropylaminomethyl-phenyl)-buta-1,3-diynyl]-benzamide]: the MIC is under 2 µg/mL in assay [1]; under 2 µg/mL in assay [2]; under 2 µg/mL in assay [3]; under 2 µg/mL in the assay with APAE001 (ATCC27853); 16 to 64 µg/mL (≈ 36 to 144 µM) in assay [5]; under 2 µg/mL with AECO001 (ATCC25922) (setting [6]). Besides, the MIC with AECO001 (ATCC25922) (setting [7]) lay in the range of 2 to 16 µg/mL (≈ 4.5 to 36 µM). In addition, the “MIC APAE006 + PMBN” value in assay [4] is “A (MIC's of 2.0 μg/mL or less = A)”.

For the compound `CC(C)(N)[C@H](NC(=O)c1ccc(C#CC#Cc2ccc(CNC3CC3)cc2)cc1)C(=O)NO` [Example 87-4], the MIC is under 2 µg/mL in assay [1]; under 2 µg/mL in assay [2]; under 2 µg/mL in assay [3]; under 2 µg/mL in the assay with APAE001 (ATCC27853); 16 to 64 µg/mL (≈ 36 to 144 µM) in assay [5]; under 2 µg/mL in the assay with AECO001 (ATCC25922) (setting [6]). Also, the MIC with AECO001 (ATCC25922) (setting [7]) lay in the range of 2 to 16 µg/mL (≈ 4.5 to 36 µM). Besides, the “MIC APAE006 + PMBN” value in assay [4] was “A (MIC's of 2.0 μg/mL or less = A)”.

Turning to `CC(C)(N)C(NC(=O)c1ccc(C#CC#Cc2ccncc2)cc1)C(=O)NO` (centres unmarked) [Example 88-6], the MIC in assay [1] is under 2 µg/mL; in assay [2], under 2 µg/mL; in assay [3], 2 to 16 µg/mL (≈ 5.31 to 42.5 µM); in the assay with APAE001 (ATCC27853), 2 to 16 µg/mL (≈ 5.31 to 42.5 µM); in assay [5], 16 to 64 µg/mL (≈ 42.5 to 170 µM); with AECO001 (ATCC25922) (setting [6]) it was under 2 µg/mL. Further, the MIC in the assay with AECO001 (ATCC25922) (setting [7]) was in the range of 2 to 16 µg/mL (≈ 5.31 to 42.5 µM). Also, in assay [4], the “MIC APAE006 + PMBN” value was “A (MIC's of 2.0 μg/mL or less = A)”.

On to `CC(C)(O)[C@H](NC(=O)c1ccc(C#CC#Cc2ccccn2)cc1)C(=O)NO` [Example 88-7], for which the MIC in assay [1] was under 2 µg/mL; in assay [2] it was under 2 µg/mL; in assay [3], 2 to 16 µg/mL (≈ 5.3 to 42.4 µM); in the assay with APAE001 (ATCC27853), 2 to 16 µg/mL (≈ 5.3 to 42.4 µM); in assay [5], 16 to 64 µg/mL (≈ 42.4 to 170 µM); in the assay with AECO001 (ATCC25922) (setting [6]), under 2 µg/mL. Moreover, the MIC in the assay on AECO001 (ATCC25922) (setting [7]) was in the range of 2 to 16 µg/mL (≈ 5.3 to 42.4 µM). For the same compound, the “MIC APAE006 + PMBN” value in assay [4] is recorded as “A (MIC's of 2.0 μg/mL or less = A)”.

As to `CC(C)(N)[C@H](NC(=O)c1ccc(C#CC#Cc2cccnc2)cc1)C(=O)NO` [Example 88-8], the MIC in assay [1] was under 2 µg/mL; in assay [2], under 2 µg/mL; in assay [3], 2 to 16 µg/mL (≈ 5.31 to 42.5 µM); in the assay with APAE001 (ATCC27853), under 2 µg/mL; in assay [5], 16 to 64 µg/mL (≈ 42.5 to 170 µM); in the assay on AECO001 (ATCC25922) (setting [6]) it was under 2 µg/mL. Also, the MIC with AECO001 (ATCC25922) (setting [7]) was under 2 µg/mL. The “MIC APAE006 + PMBN” value in assay [4] is listed as “A (MIC's of 2.0 μg/mL or less = A)”. In addition, the “Ratio of MICs on AECO001 [Cpd (A = —CHCH3NH2)/Cpd (A = —C(CH3)2NH2)]” value in the assay on AECO001 (ATCC25922) (MIC of paired compound with A = —CHCH3NH2 divided by MIC of compound with A = —C(CH3)2NH2, n=2 data, pairs identical except for the A moiety) worked out at 5.1.

Turning to `C[C@@H](N)[C@H](NC(=O)c1ccc(C#CC#Cc2cccs2)cc1)C(=O)NO` [Example 88-12], the MIC in assay [1] is under 2 µg/mL; in assay [2], under 2 µg/mL; in assay [3], under 2 µg/mL; with APAE001 (ATCC27853), under 2 µg/mL; in assay [5], 2 to 16 µg/mL (≈ 5.44 to 43.5 µM); in the assay with AECO001 (ATCC25922) (setting [6]), under 2 µg/mL. In the assay with AECO001 (ATCC25922) (setting [7]), the MIC lay within 2 to 16 µg/mL (≈ 5.44 to 43.5 µM). In assay [4], the “MIC APAE006 + PMBN” value is “A (MIC's of 2.0 μg/mL or less = A)”.

As for `CC(C)(O)[C@H](NC(=O)c1ccc(C#CC#Cc2ccsc2)cc1)C(=O)NO` [Example 88-14], the MIC in assay [1] is under 2 µg/mL; in assay [2], under 2 µg/mL; in assay [3], under 2 µg/mL; in the assay on APAE001 (ATCC27853) it was under 2 µg/mL; in assay [5], 16 to 64 µg/mL (≈ 41.8 to 167 µM); with AECO001 (ATCC25922) (setting [6]) it was under 2 µg/mL. For the same compound, the MIC with AECO001 (ATCC25922) (setting [7]) was in the range of 2 to 16 µg/mL (≈ 5.23 to 41.8 µM). For the same compound, the “MIC APAE006 + PMBN” value in assay [4] is reported as “A (MIC's of 2.0 μg/mL or less = A)”.

Take `CC(C)(N)[C@H](NC(=O)c1ccc(C#CC#Cc2ccsc2)cc1)C(=O)NO` [Example 88-15]: the MIC is under 2 µg/mL in assay [1]; under 2 µg/mL in assay [2]; under 2 µg/mL in assay [3]; under 2 µg/mL in the assay with APAE001 (ATCC27853); 2 to 16 µg/mL (≈ 5.24 to 41.9 µM) in assay [5]; under 2 µg/mL in the assay on AECO001 (ATCC25922) (setting [6]). The MIC with AECO001 (ATCC25922) (setting [7]) is under 2 µg/mL. Moreover, the “MIC APAE006 + PMBN” value in assay [4] is “A (MIC's of 2.0 μg/mL or less = A)”.
